The target in experiment [1] is T1, human dopamine D3 receptors (Homo sapiens, UniProt P35462).
T1 construct: expressed in transfected cells
Nature of the experiment: Dopamine D3 receptor binding, displacement of [125I]-iodosulpride. The note with it: membranes of HEK-293 cells stably expressing human D3 receptor; 0.1 nM [125I]-iodosulpride; 25° C., 60 minutes. As to the method:
(§1) The substance to be tested was either dissolved in methanol/Chremophor® (BASF-AG) or in dimethyl sulfoxide and then diluted with water to the desired concentration.
(§2) Each assay mixture was run in triplicate.
The incubation buffer contained 50 mM tris, 120 mM NaCl, 5 mM KCl, 2 mM CaCl2, 2 mM MgCl2 and 0.1% bovine serum albumin, 10 μM quinolone and 0.1% ascorbic acid (prepared fresh daily). The buffer was adjusted to pH 7.4 with HCl.
(§3) Measurement and Analysis:
(§4) After having been incubated at 25° C. for 60 minutes, the assay mixtures were filtered through a Whatman GF/B glass fiber filter under vacuum using a cell collecting device. The filters were transferred to scintillation viols using a filter transfer system. After 4 ml of Ultima Gold® (Packard) have been added, the samples were shaken for one hour and the radioactivity was then counted in a Beta-Counter (Packard, Tricarb 2000 or 2200CA). The cpm values were converted into dpm using a standard quench series and the program belonging to the instrument.
(§5) The inhibition curves were analyzed by means of iterative nonlinear regression analysis using the Statistical Analysis System (SAS) which is similar to the “LIGAND” program described by Munson and Rodbard.

The target in experiment [2] is T2, human dopamine D2L receptors (long isoform) (Homo sapiens, UniProt P14416).
T2 construct: expressed in transfected cells
Nature of the experiment: Dopamine D2L receptor binding, displacement of [125I] iodospiperone. The note with it: ratio, HEK-293 membranes, 0.01 nM [125I] iodospiperone. The method, then: as §1, §2
The incubation buffer contained 50 mM tris, 120 mM NaCl, 5 mM KCl, 2 mM CaCl2, 2 mM MgCl2 and 0.1% bovine serum albumin. The buffer was adjusted to pH 7.4 with HCl.
as §3, §4, §5
A general note: In a radioligand displacement assay an active substance lowers the binding of a labelled ligand.

T2 sequence (P14416 whole entry, canonical isoform): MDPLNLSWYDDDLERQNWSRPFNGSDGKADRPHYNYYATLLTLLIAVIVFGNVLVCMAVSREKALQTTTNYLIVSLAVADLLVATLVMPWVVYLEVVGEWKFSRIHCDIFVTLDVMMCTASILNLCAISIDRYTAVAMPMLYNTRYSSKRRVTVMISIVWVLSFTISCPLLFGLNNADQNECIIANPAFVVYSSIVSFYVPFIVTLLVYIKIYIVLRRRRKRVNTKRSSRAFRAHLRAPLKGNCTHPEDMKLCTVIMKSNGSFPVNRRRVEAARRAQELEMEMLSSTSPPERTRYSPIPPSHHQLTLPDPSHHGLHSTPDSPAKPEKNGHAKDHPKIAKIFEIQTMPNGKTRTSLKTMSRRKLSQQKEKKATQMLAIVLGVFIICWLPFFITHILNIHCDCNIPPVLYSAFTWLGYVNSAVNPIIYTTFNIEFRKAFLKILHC
T1 sequence (P35462 whole entry): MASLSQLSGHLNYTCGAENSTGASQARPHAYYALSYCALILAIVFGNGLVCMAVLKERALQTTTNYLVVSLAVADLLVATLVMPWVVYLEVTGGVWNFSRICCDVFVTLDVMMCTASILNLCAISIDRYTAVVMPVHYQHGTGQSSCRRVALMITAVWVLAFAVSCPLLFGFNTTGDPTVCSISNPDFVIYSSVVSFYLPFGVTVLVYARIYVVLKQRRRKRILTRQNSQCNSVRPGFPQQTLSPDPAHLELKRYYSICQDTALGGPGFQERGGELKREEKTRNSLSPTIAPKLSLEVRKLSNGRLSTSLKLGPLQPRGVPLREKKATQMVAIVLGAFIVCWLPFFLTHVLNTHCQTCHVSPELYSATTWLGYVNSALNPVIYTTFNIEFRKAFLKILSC

On to “N-[2-(4-Allylpiperazin-1-yl)pyridin-5-yl]-4-(N-pyrrolidinyl)benzene-sulfonamide fumarate [Example 42]”, for which the Ki in experiment [1] was 5.3 nM. Besides, the “Selectivity vs. D2L” value in experiment [2] is reported as 33.

For orientation: Ki means the dissociation constant of the complex between target and ligand, obtained from inhibition or displacement.

For the origin of these results see patent US8476275B2, “N-[piperazinyl hetaryl]arylsufonamide compounds with affinity for the dopamine D3 receptor” (Abbott GmbH & Co. KG, priority 2003, dated 2013).
